Tested on: parental HEK cells
Experiment: Ca2+ assays (fluo-4 and fura-2) in parental HEK cells lacking TRPV3
Assay type: cell-based, human
Settings: concentrations up to 50 μM
Experimental: All fluorometric Ca^2+ assays were performed in HBS buffer at room temperature. The compounds of the Enamine Diversity Set were diluted in a buffer composed of 150 mM NaCl and 20 mM HEPES and added to the cells at a final concentration of 25 μM (0.5% DMSO). For the primary compound screening and the generation of concentration-response analyses, a robotic liquid handling station (Freedom Evo 150; Tecan) with a built-in custom-made fluorescence plate imager was used. HEKTRPV3 and bladder cancer cell lines were harvested and loaded with 4 μM fluo-4/AM (Invitrogen; Fisher Scientific) in cell culture medium for 30 minutes at 37 °C. […] Fluorescence was excited using a 470-nm light-emitting diode, and emitted light was imaged through a 515-nm–long pass filter with a cooled Zyla 5.5 camera (Andor). Fluorescence was recorded and processed under the control of the μ-Manager 2.0 gamma software (https://micro-manager.org.[28]). After recording baseline fluorescence, compounds were dispensed into the wells via the liquid handling device. […] For further analysis, fluorescence signals were calculated for each well, corrected for background intensities and normalized to the initial signals. […] Fluorescence signals were excited with a fiber-coupled monochromator device (Polychrome V; Till Photonics) at 340, 358, and 380 nm and calibrated as described before.[29] […]

Structure (SMILES): COC(=O)C12CN(Cc3ccccc3)CC1(C(=O)OC)CN(Cc1ccccc1)C2 (stereo not shown) [AV3-1]
- off-target effects on parental HEK cells: no detectable off-target effects

Reference: article PMC12881674, “Activation of TRPV3 channels in bladder cancer cells stimulates ATP release” (Molecular Pharmacology, 2025)
